The test system of test [1] is MDA-MB-468. Nature of the test: Antitumor activity against human MDA-MB-468 cells xenografted in BALB/c nude mouse assessed as tumor growth inhibition at 30 mg/kg, iv administered once daily for 21 days. Type of test: functional. The settings on record: MDA-MB-468, 504 h, time 21 day, read-out: TGI. (Xenograft models place foreign cells or tissue in a host animal.)

Test [2] has as its system MDA-MB-231. In words: Antiproliferative activity against human MDA-MB-231 cells assessed inhibition of cell growth incubated for 72 hrs by CCK-8 assay. Type of test: functional.
Test [3] concerns the target T1, Dual specificity protein kinase TTK (Homo sapiens, UniProt P33981).
T1 sequence (P33981 whole entry): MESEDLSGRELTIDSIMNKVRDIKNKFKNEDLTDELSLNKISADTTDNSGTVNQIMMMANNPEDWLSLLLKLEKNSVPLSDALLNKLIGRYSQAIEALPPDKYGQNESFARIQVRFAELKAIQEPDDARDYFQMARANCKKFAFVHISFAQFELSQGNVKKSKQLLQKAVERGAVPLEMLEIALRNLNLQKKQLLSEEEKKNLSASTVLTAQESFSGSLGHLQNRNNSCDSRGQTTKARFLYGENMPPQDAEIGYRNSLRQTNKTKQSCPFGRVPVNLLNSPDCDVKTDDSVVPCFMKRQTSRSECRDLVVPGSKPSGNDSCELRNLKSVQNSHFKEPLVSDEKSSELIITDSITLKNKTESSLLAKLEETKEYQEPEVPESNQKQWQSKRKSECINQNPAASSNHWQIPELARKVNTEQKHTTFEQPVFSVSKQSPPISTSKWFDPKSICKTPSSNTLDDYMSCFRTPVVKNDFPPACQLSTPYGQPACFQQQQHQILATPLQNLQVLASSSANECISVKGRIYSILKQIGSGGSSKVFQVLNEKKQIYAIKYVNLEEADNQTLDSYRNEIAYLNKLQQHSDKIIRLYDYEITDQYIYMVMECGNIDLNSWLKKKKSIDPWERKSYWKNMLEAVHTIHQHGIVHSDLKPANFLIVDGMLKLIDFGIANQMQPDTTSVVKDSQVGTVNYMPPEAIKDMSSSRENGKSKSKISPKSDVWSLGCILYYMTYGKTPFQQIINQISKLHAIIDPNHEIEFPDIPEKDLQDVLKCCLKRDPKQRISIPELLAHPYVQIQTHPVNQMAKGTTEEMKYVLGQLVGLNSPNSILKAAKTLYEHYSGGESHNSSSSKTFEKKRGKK
In words: Inhibition of MPS1 (unknown origin).

In test [4] the test system is HCT-116. In words: Antitumor activity against human HCT-116 cells xenografted in mouse assessed as tumor growth inhibition at 6.5 mg/kg, po. The settings on record: read-out: TGI. Type of test: functional.

Structures are written as SMILES.

Take `COc1ccc(Oc2cc(NCCC(F)(F)F)c3ncc(-c4ccc(C(=O)NC5CC5)c(C)c4)n3n2)c(F)c1F` [BAY-1217389]: the inhibition in vivo at 30 mg/kg in test [1] was determined as 67%. Moreover, the “inhibition (INH)” value in test [2] was 61.14%. `COCCCNC(=O)c1cc(-c2ccc(OC)c(OC)c2)nc2[nH]nc(-c3ccc(OC)cc3)c12` yielded a concentration for half-maximal inhibition (IC50) in test [3] of 0.391 µM. Consider `Cc1cc(-c2cnn3c(NC[C@H]4C[C@@](C)(O)C4)cc(Oc4cccnc4)nc23)ccc1C(=O)NC1CC1` [LUVIXASERTIB], for which the inhibition in vivo at 6.5 mg/kg in test [4] was 68%.

A word on the IC50: it is the point on the concentration scale where inhibition reaches its midpoint. A higher IC50 goes with a need for much substance.
